From ChEMBL document CHEMBL1201862, “PubChem BioAssay data set” (2004)
Active and inactive are the calls of the source. Cut-off read from the data, not from the text of the source, for most assays here: actives have a measured IC50 and inactives only a lower limit.

Legend:
[1] = target: T1, Tyrosine-protein phosphatase non-receptor type 22 (Homo sapiens, UniProt Q9Y2R2); experiment: SAR LYP1 Fluorescent Assay using pCAP substrate for In Vitro dose response studies - Set 2. [Related pubchem assays (depositor defined):AID1779, AID1784, AID2135, AID449727]; format: functional
T1 sequence (Q9Y2R2 whole entry): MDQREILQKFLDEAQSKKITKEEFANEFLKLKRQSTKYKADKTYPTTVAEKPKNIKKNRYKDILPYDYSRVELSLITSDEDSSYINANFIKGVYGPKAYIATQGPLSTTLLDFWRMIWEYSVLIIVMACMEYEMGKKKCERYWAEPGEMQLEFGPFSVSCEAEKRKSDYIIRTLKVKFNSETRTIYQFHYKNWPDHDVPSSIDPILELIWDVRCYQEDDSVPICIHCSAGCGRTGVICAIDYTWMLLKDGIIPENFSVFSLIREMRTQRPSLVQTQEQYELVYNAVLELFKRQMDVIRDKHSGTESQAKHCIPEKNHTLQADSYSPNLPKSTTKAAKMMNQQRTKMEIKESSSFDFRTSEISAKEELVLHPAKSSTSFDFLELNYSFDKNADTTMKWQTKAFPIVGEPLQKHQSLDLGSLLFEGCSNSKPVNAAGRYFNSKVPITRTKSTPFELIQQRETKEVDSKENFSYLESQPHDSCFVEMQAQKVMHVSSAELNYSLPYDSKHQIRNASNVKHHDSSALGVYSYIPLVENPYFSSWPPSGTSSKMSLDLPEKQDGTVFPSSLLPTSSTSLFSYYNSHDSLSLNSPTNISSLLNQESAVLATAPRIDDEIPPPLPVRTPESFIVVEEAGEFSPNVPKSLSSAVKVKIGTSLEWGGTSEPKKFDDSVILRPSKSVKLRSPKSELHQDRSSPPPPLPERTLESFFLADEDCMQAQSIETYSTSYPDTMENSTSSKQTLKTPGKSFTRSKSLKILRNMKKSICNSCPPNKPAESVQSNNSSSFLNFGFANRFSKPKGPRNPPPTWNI

[2] = target: Tyrosine-protein phosphatase non-receptor type 12 (Homo sapiens, UniProt Q05209); experiment: SAR Selectivity Analysis of small molecule inhibitors of PEST using pCAP in a fluorescence assay. [Related pubchem assays (depositor defined):AID1779, AID1784, AID2135]; format: functional
Sequence of Tyrosine-protein phosphatase non-receptor type 12 (Q05209 whole entry): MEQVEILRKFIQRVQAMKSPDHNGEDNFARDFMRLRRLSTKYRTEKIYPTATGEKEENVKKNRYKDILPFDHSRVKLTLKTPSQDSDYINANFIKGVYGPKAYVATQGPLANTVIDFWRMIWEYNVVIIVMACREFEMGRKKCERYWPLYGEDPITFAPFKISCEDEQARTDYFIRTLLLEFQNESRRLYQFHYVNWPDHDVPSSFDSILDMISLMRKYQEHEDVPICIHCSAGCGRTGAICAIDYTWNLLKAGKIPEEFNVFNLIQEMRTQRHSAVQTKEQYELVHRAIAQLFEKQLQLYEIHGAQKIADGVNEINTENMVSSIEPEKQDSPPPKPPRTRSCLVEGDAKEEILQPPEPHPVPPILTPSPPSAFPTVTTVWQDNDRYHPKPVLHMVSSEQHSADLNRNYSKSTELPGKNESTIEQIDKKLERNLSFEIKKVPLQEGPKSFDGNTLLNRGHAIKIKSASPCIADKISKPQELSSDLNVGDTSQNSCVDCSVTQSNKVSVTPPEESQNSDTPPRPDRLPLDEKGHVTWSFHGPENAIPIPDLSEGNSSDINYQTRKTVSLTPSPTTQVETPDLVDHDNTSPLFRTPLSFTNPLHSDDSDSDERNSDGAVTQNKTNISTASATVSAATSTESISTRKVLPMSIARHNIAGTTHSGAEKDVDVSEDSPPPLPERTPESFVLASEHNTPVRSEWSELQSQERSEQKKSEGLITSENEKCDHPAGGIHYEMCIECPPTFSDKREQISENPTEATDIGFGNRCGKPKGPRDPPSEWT

[3] = target: T1, Tyrosine-protein phosphatase non-receptor type 22; experiment: SAR LYP1 Fluorescent Assay using OMFP substrate for In Vitro dose response studies - Set 3. [Related pubchem assays (depositor defined):AID1779, AID1784, AID2140, AID2686]; format: functional
[4] = target: T2, Tyrosine-protein phosphatase non-receptor type 7 (Homo sapiens, UniProt P35236); experiment: inhibition of hematopoietic tyrosine phosphatase HePTP – biochemical, set 2, SAR follow-up (AID 449736); format: functional
T2 sequence (P35236 whole entry): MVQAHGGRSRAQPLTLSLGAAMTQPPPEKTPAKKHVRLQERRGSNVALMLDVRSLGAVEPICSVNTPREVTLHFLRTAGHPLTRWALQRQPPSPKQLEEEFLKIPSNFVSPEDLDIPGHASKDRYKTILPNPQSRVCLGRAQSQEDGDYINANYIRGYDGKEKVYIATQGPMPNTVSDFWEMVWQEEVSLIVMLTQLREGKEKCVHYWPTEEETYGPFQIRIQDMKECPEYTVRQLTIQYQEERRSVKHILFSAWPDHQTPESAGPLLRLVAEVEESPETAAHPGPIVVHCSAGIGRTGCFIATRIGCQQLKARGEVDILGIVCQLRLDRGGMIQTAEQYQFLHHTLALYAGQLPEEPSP

[5] = target: T1, Tyrosine-protein phosphatase non-receptor type 22; experiment: inhibition of lymphoid tyrosine phosphatase LYP – biochemical, pCAP fluorogenic substrate, fluorescence, set 3, SAR follow-up (AID 449727); format: functional
[6] = target: T1, Tyrosine-protein phosphatase non-receptor type 22; experiment: PubChem AID 2135
[7] = target: T1, Tyrosine-protein phosphatase non-receptor type 22; experiment: PubChem AID 2140
[8] = target: T1, Tyrosine-protein phosphatase non-receptor type 22; experiment: SAR LYP1 Fluorescent Assay using OMFP substrate for In Vitro dose response studies - Set 2. [Related pubchem assays (depositor defined):AID1779, AID1784, AID2140, AID449726, AID488869]; format: functional
[9] = target: Envelope glycoprotein gp160 (Human immunodeficiency virus 1, UniProt Q6QLK5); experiment: cell-free HIV fusion peptide-binding blockers – biochemical, uHTS, fluorescence dequenching, […] (AID 1986)
Sequence of Envelope glycoprotein gp160 (Q6QLK5 whole entry, the tested form may be a part): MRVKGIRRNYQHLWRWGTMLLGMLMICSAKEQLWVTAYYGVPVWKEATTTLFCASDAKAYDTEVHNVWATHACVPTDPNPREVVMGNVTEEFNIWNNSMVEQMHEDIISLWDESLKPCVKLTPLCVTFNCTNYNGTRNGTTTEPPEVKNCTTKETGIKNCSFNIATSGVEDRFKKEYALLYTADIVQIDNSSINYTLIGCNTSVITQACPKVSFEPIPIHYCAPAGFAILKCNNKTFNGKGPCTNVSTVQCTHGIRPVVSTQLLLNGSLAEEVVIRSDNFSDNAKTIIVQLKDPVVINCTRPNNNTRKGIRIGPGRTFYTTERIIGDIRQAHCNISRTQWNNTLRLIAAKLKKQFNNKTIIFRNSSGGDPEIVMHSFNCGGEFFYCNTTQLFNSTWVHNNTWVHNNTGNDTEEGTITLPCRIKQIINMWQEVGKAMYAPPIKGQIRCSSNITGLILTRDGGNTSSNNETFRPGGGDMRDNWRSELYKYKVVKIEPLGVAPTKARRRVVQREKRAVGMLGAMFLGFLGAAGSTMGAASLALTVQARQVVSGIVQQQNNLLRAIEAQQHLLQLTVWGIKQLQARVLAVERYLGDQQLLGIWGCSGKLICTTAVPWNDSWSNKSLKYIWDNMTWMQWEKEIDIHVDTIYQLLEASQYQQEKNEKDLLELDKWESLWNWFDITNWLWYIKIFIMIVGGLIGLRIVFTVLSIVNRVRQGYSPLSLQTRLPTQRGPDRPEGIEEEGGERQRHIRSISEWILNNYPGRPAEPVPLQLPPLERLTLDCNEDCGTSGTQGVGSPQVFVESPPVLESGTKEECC

Genome polyprotein = Genome polyprotein (dengue virus type 2, UniProt P29990); experiment: flavivirus cap methylation enzyme inhibition – biochemical, confirmation dose response, primary screen (AID 588689); format: functional
Sequence of Genome polyprotein (P29990 2492-3391 limits assumed): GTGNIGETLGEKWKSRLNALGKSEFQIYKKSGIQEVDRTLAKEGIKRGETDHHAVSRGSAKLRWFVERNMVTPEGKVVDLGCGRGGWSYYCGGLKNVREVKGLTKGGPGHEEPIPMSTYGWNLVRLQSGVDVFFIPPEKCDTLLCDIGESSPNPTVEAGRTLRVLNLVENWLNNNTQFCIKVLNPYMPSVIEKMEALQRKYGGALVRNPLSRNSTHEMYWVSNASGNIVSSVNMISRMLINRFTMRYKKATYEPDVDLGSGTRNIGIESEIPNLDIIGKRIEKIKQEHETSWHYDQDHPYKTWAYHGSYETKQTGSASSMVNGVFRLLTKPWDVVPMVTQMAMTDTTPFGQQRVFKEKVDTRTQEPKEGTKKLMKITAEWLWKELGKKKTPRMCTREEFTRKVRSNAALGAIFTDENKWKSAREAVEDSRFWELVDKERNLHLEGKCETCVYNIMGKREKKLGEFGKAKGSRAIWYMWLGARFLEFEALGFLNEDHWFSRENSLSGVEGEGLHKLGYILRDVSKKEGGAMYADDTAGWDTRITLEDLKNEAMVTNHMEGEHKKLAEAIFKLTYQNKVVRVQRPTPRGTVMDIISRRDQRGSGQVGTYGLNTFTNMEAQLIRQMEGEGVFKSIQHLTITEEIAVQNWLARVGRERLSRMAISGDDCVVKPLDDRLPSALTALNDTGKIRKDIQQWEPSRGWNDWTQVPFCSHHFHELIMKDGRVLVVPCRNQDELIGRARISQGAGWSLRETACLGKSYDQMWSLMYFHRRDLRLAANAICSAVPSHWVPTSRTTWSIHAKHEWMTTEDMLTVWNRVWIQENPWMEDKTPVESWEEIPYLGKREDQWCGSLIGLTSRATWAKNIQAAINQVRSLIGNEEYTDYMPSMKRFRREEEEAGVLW

[10] = target: T3, Rac GTPase-activating protein 1 (Homo sapiens, UniProt Q9H0H5); experiment: blockers of MgcRacGAP-driven Rac1 GTP hydrolysis – biochemical, ADP Hunter fluorescence, primary and confirmatory, confirmation (AID 624330); format: functional
T3 sequence (Q9H0H5 whole entry): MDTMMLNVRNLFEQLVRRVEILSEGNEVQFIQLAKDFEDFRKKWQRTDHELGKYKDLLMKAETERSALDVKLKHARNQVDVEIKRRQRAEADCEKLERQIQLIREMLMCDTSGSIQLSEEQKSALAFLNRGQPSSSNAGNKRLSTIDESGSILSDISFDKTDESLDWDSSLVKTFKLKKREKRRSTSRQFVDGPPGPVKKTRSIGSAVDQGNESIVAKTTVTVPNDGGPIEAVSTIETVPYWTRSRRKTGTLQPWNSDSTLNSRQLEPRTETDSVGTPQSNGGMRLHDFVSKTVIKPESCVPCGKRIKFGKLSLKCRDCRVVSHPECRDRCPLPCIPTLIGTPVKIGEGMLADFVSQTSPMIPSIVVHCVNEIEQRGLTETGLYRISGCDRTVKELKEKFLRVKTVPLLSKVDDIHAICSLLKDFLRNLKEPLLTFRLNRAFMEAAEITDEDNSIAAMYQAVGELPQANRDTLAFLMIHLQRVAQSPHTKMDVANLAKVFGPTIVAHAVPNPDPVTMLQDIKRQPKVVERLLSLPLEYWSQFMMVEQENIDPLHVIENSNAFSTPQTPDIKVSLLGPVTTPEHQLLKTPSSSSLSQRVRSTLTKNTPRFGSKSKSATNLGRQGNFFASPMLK

[11] = target: G-protein coupled receptor 55 (Homo sapiens, UniProt Q9Y2T6); experiment: selective activators of receptor GPR55 – imaging, U2OS cells, beta-arrestin-GFP redistribution, primary screen (AID 1961); format: functional
Sequence of G-protein coupled receptor 55 (Q9Y2T6 whole entry): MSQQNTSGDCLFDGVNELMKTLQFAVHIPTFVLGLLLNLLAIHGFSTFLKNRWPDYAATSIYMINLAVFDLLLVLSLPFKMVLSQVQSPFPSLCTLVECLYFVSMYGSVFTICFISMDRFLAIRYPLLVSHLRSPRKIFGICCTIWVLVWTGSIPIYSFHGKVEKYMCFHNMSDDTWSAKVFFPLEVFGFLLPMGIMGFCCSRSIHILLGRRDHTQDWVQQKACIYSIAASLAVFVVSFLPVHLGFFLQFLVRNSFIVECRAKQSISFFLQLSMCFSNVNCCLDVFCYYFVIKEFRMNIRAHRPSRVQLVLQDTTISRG

Cysteine protease ATG4B = target: T4, Cysteine protease ATG4B (Homo sapiens, UniProt Q9Y4P1); format: functional;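 note: Fluorescence-based dose-response confirmation assay measuring inhibition of ATG4B activity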
T4 sequence (Q9Y4P1 whole entry): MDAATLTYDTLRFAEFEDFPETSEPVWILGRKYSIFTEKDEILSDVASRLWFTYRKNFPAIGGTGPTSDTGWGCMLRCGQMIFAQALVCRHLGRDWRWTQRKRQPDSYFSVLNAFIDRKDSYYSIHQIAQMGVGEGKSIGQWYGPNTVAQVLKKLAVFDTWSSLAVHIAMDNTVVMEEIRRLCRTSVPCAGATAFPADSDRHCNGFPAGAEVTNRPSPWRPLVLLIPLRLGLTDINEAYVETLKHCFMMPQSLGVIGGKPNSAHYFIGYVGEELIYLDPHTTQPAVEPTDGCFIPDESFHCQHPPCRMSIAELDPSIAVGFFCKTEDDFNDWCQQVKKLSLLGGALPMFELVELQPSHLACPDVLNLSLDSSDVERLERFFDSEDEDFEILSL

Phospholipase A2 = Phospholipase A2 (Homo sapiens, UniProt P04054); format: functional;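 note: confirmatory dose-response counterscreen on phospholipase A2, testing hits that came from an ultra-high-throughput screen for ATG4B inhibitors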
Sequence of Phospholipase A2 (P04054 whole entry): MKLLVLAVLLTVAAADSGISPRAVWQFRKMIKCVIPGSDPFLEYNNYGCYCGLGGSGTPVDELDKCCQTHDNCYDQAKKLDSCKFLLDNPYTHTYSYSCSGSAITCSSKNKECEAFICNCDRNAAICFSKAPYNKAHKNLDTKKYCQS

Cytochrome P450 2C9 = Cytochrome P450 2C9 (Homo sapiens, UniProt P11712)
Sequence of Cytochrome P450 2C9 (P11712 whole entry): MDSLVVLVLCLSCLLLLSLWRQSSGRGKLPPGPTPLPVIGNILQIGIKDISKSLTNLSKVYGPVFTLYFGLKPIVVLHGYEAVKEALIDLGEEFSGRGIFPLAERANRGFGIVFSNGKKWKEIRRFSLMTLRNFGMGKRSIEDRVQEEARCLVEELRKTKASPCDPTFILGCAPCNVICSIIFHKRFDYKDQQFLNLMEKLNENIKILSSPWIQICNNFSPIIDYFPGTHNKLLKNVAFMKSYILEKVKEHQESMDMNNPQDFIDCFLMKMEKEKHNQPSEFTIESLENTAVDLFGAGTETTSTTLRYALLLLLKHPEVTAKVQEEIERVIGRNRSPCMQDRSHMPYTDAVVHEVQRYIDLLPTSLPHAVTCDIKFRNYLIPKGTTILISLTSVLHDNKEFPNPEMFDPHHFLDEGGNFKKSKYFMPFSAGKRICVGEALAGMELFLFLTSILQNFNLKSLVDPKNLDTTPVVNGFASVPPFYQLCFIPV

[12] = target: T5, Dual specificity protein phosphatase 3 (Homo sapiens, UniProt P51452); experiment: SAR VHR1 absorbance Assay for In Vitro dose response studies. [Related pubchem assays (depositor defined):AID1654, AID1661, AID1878, AID1992, AID2004]
T5 sequence (P51452 whole entry): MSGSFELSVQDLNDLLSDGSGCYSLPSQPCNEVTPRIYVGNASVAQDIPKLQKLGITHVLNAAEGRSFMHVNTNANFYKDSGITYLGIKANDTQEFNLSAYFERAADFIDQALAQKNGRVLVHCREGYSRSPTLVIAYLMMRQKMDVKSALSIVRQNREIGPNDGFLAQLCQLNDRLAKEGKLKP

[13] = target: T5, Dual specificity protein phosphatase 3; experiment: SAR VHR1 Fluorescent Assay for In Vitro dose response studies. [Related pubchem assays (depositor defined):AID1654, AID1661, AID1878, AID1992, AID2004, AID2070, AID2085]; format: functional
[14] = target: T2, Tyrosine-protein phosphatase non-receptor type 7; experiment: redox-active compounds inhibiting HePTP phosphatase – biochemical, fluorescence, mechanism study (AID 2068); format: functional
[15] = target: T6, Dual specificity protein phosphatase 6 (Rattus norvegicus, UniProt Q64346); format: functional;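 note: confirmatory in vitro dose-response testing of MKP-3 inhibition; recombinant His-tagged MKP-3 made in E. coli BL21 with OMFP substrate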
T6 sequence (Q64346 whole entry): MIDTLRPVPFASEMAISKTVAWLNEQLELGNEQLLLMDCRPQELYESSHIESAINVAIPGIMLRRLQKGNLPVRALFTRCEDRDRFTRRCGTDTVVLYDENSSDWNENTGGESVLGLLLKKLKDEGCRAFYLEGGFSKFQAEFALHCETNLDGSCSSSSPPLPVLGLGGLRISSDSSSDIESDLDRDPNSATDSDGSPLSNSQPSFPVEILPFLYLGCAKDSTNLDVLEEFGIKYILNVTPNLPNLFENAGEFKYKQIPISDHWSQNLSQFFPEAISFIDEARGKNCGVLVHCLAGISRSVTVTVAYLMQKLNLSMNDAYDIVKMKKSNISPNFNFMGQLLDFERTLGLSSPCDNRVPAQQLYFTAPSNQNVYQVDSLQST

## COC(=O)c1ccc(COc2ccc3cc(-c4ccc(F)cc4)c(=O)oc3c2)cc1
[1]
  IC50: > 100 µM (inactive)
[2]
  IC50: > 100 µM (inactive)
[3]
  IC50: > 100 µM (inactive)
[4]
  IC50: 40 µM (active)
[5]
  IC50: > 100 µM (inactive)
[6]
  IC50: > 100 µM (inactive)
[7]
  IC50: > 100 µM (inactive)
[8]
  IC50: > 100 µM (inactive)

## CN1C(=O)/C(=C/c2ccc(C(=O)Nc3ccc(O)cc3C(=O)O)cc2)SC1=S
[9]
  IC50: 11.3 µM (active)
Genome polyprotein
  IC50: 31.8 µM (active)
[10]
  IC50: 55.1 µM (active)

## COc1cc(/C=C2/C(=N)N3C=CSC3=NC2=O)ccc1OCCCOc1c(C)cccc1C
[11]
  EC50: 4.7 µM (active)
Cysteine protease ATG4B
  IC50: 7.86 µM (active)
Phospholipase A2
  IC50: 3.11 µM (active)
Cytochrome P450 2C9
  AC50: 2 µM (inconclusive)

## Fc1ccc(OCCn2cc(C(=S)N3CCCCC3)c3ccccc32)cc1
[12]
  IC50: > 100 µM (inactive)
[13]
  IC50: > 99 µM (inactive)
[14]
  IC50: 47.2 µM (active)
[15]
  IC50: > 99 µM (inactive)
